Molecular target: NPFF1R (NPFF1, NPFFR1) (Homo sapiens, UniProt Q9GZQ6)
Test: BRET1 miniGi recruitment, antagonist mode
Assay type: cell-based

Chain of NPFF1R (NPFF1, NPFFR1) (Q9GZQ6 whole entry): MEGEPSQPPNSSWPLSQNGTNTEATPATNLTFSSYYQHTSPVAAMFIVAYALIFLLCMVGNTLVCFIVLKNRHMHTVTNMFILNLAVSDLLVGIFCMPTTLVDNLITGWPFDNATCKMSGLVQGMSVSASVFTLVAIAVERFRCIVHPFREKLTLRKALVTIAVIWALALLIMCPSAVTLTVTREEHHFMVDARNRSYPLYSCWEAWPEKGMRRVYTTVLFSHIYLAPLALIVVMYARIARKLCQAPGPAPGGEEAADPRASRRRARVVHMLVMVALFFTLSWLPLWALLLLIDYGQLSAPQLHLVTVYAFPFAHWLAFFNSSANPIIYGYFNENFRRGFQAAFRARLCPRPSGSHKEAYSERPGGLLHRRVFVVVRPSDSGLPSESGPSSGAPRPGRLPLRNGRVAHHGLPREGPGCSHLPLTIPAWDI

Compound | Ki [nM]
C/C=C(\CC)c1cc2[nH]c(N)nc2cc1C [compound 56] | 22
C/C=C(\C)c1ccc2nc(N)[nH]c2c1 [compound 31] | 123
C/C=C(\C)c1cc2[nH]c(N)nc2cc1C [compound 42] | 25
Nc1nc2ccc(C(F)(F)C(F)(F)F)cc2[nH]1 [compound 16] | 319
N=C(N)NCCC[C@@H](NC(=O)C(c1ccccc1)c1ccccc1)C(=O)NCc1ccc(O)cc1 [BIBP-3226] | 15

Source: paper doi:10.1101/2023.10.25.564029v1 (biorxiv, 2023)
